ChEMBL document CHEMBL2176932, “De novo cyclic pseudopeptides containing aza-β3-amino acids exhibiting antimicrobial activities” (J Med Chem, 2012)
Converted amounts (≈) assume the structure as drawn.

Tests used:
Streptococcus equinus = experiment: Antibacterial activity against Streptococcus equinus ATCC 5623 after 48 hrs by microtiter broth dilution method; format: functional; conditions: ATCC 5623, 48 h
Salmonella enterica = experiment: Antibacterial activity against Salmonella enterica ATCC 13076 after 48 hrs by microtiter broth dilution method; format: functional; conditions: ATCC 13076, 48 h
[1] = Toxicity in sheep RBC assessed as hemolytic activity at 100 uM after 1 hr; format: cell-based, Ovis aries, Erythrocyte; conditions: sheep red blood cells, read-out: Activity
Priestia megaterium = experiment: Antibacterial activity against Bacillus megaterium ATCC 10778 after 48 hrs by microtiter broth dilution method; format: functional; conditions: ATCC 10778, 48 h
Listeria monocytogenes = experiment: Antibacterial activity against Listeria monocytogenes SOR 100 after 48 hrs by microtiter broth dilution method; format: functional; conditions: SOR 100, 48 h
Pseudomonas aeruginosa = experiment: Antibacterial activity against Pseudomonas aeruginosa ATCC 27853 after 48 hrs by microtiter broth dilution method; format: functional; conditions: ATCC 27853, 48 h
Klebsiella oxytoca = experiment: Antibacterial activity against Klebsiella oxytoca CIP 7932 after 48 hrs by microtiter broth dilution method; format: functional; conditions: CIP 7932, 48 h
Micrococcus luteus = experiment: Antibacterial activity against Micrococcus luteus ATCC 10240 after 48 hrs by microtiter broth dilution method; format: functional; conditions: ATCC 10240, 48 h
Aeromonas caviae = experiment: Antibacterial activity against Aeromonas caviae ATCC 15648 after 48 hrs by microtiter broth dilution method; format: functional; conditions: ATCC 15648, 48 h
[2] = Toxicity in sheep RBC assessed as hemolytic activity after 1 hr; format: cell-based, Ovis aries, Erythrocyte; conditions: sheep red blood cells
Lactococcus garvieae = experiment: Antibacterial activity against Lactococcus garvieae ATCC 43921 after 48 hrs by microtiter broth dilution method; format: functional; conditions: ATCC 43921, 48 h
Klebsiella aerogenes = experiment: Antibacterial activity against Enterobacter aerogenes ATCC 13048 after 48 hrs by microtiter broth dilution method; format: functional; conditions: ATCC 13048, 48 h
Escherichia coli = experiment: Antibacterial activity against Escherichia coli ATCC 25922 after 48 hrs by microtiter broth dilution method; format: functional; conditions: ATCC 25922, 48 h
Staphylococcus aureus = experiment: Antibacterial activity against Staphylococcus aureus ATCC 25923 after 48 hrs by microtiter broth dilution method; format: functional; conditions: ATCC 25923, 48 h
Enterococcus faecalis = experiment: Antibacterial activity against Enterococcus faecalis CIP 186 after 48 hrs by microtiter broth dilution method; format: functional; conditions: CIP 186, 48 h

| Compound | MIC (Streptococcus equinus) [µM] | MIC (Salmonella enterica) [µM] | hemolysis at 1 h, 100 µM [1] [%] | MIC (Priestia megaterium) [µM] | MIC (Listeria monocytogenes) [µM] | MIC (Pseudomonas aeruginosa) [µM] | MIC (Klebsiella oxytoca) [µM] | MIC (Micrococcus luteus) [µM] | MIC (Aeromonas caviae) [µM] | HC50 at 1 h [2] [µM] | MIC (Lactococcus garvieae) [µM] | MIC (Klebsiella aerogenes) [µM] | MIC (Escherichia coli) [µM] | MIC (Staphylococcus aureus) [µM] | MIC (Enterococcus faecalis) [µM] |
| --- | --- | --- | --- | --- | --- | --- | --- | --- | --- | --- | --- | --- | --- | --- | --- |
| CC(C)C[C@H]1NC(=O)CN(CCCCN)NC(=O)[C@H](CCCCN)NC(=O)CN(Cc2cccc3ccccc23)NC(=O)CN(CC(C)C)NC1=O | 100 (≈ 72.5 µg/mL) | > 100 | 0 | 50 (≈ 36.2 µg/mL) | > 100 | > 100 | > 100 | 50 (≈ 36.2 µg/mL) | > 100 | > 100 | > 100 | > 100 | > 100 | > 100 | > 100 |
| C[C@@H](O)[C@@H]1NC(=O)CN(CCCCN)NC(=O)[C@H](Cc2ccccc2)NC(=O)CN(Cc2cccc3ccccc23)NC(=O)[C@H](CO)NC(=O)CN(CCCCN)NC(=O)[C@H](CO)NC(=O)CN(CCCCN)NC1=O | > 100 | > 100 | 0 | > 100 | > 100 | 100 (≈ 106 µg/mL) | > 100 | > 100 | > 100 | > 100 | > 100 | > 100 | 100 (≈ 106 µg/mL) | > 100 | > 100 |
| CC(C)CN1CC(=O)N[C@@H](Cc2c[nH]c3ccccc23)C(=O)NN(CC(C)C)CC(=O)N[C@@H](CCCCN)C(=O)NN(CCCCN)CC(=O)N[C@@H](Cc2c[nH]c3ccccc23)C(=O)N1 | 100 (≈ 90 µg/mL) | > 100 | 0 | 25 (≈ 22.5 µg/mL) | > 100 | > 100 | > 100 | 50 (≈ 45 µg/mL) | > 100 | > 100 | > 100 | > 100 | > 100 | > 100 | > 100 |
| CC(C)C[C@@H]1NC(=O)CN(Cc2ccc3ccccc3c2)NC(=O)[C@H](CCCCN)NC(=O)CN(CCCCN)NC(=O)CN(Cc2ccc3ccccc3c2)NC1=O | 25 (≈ 20.2 µg/mL) | 100 (≈ 80.9 µg/mL) | 0 | 12.5 (≈ 10.1 µg/mL) | 100 (≈ 80.9 µg/mL) | 100 (≈ 80.9 µg/mL) | > 100 | 6.25 (≈ 5.06 µg/mL) | > 100 | > 100 | > 100 | > 100 | > 100 | > 100 | > 100 |
| CC(C)C[C@@H]1NC(=O)CN(Cc2cccc3ccccc23)NC(=O)[C@H](CCCNC(=N)N)NC(=O)CN(CCCNC(=N)N)NC(=O)[C@H](CC(C)C)NC1=O | 100 (≈ 76.6 µg/mL) | > 100 | 0 | 25 (≈ 19.1 µg/mL) | > 100 | > 100 | > 100 | 25 (≈ 19.1 µg/mL) | > 100 | > 100 | > 100 | > 100 | > 100 | > 100 | > 100 |
| CC(C)CN1CC(=O)N[C@@H](Cc2c[nH]c3ccccc23)C(=O)NN(CCCCN)CC(=O)N[C@@H](CCCCN)C(=O)NN(CCCCN)CC(=O)N[C@@H](Cc2c[nH]c3ccccc23)C(=O)N1 | > 100 | > 100 | 0 | 25 (≈ 22.9 µg/mL) | > 100 | > 100 | > 100 | 100 (≈ 91.5 µg/mL) | > 100 | > 100 | > 100 | > 100 | > 100 | > 100 | > 100 |
| CC(C)CN1CC(=O)N[C@@H](Cc2c[nH]c3ccccc23)C(=O)NN(CC(C)C)CC(=O)N[C@@H](CCCCN)C(=O)NN(CCCCN)CC(=O)N[C@@H](CCCCN)C(=O)N1 | > 100 | > 100 | 0 | 50 (≈ 42.1 µg/mL) | > 100 | > 100 | > 100 | 100 (≈ 84.2 µg/mL) | > 100 | > 100 | > 100 | > 100 | > 100 | > 100 | > 100 |
